Values after ≈ are worked out from the molar mass of the structure shown. Each block holds one compound with its values, some of them ahead of it.
What was measured:
Acinetobacter baumannii = assay: Antibacterial activity against Acinetobacter baumannii NCTC 13420; format: functional
Klebsiella pneumoniae = assay: Antibacterial activity against Klebsiella pneumoniae ATCC 700603; format: functional
Pseudomonas aeruginosa = assay: Antibacterial activity against Pseudomonas aeruginosa ATCC 27853; format: functional
Staphylococcus aureus = assay: Antibacterial activity against Staphylococcus aureus ATCC 29213; format: functional
Escherichia coli [1] = assay: Antibacterial activity against Escherichia coli W4573; format: functional
Escherichia coli [2] = assay: Antibacterial activity against Escherichia coli N43; format: functional
Escherichia coli [3] = assay: Antibacterial activity against wild type Escherichia coli LM179; format: functional
Escherichia coli [4] = assay: Antibacterial activity against Escherichia coli LM625 harboring GyrA S83L/D87N double mutant; format: functional
Escherichia coli [5] = assay: Antibacterial activity against Escherichia coli LM367 harboring delta marR/delta acrR double mutant; format: functional
Escherichia coli [6] = assay: Antibacterial activity against Escherichia coli LM693 harboring GyrA S83L/D87N double mutant/ParC S80I mutant; format: functional
Escherichia coli [7] = assay: Antibacterial activity against Escherichia coli LM705 harboring GyrA S83L/D87N double mutant/ParC S80I mutant/delta marR/delta acrR double mutant; format: functional
Escherichia coli [8] = assay: Antibacterial activity against Escherichia coli CH440 harboring GyrA S83L/D87N double mutant/ParC S80I E84V double mutant/aac(6')-lb-cr; format: functional
Escherichia coli [9] = assay: Antibacterial activity against Escherichia coli CH460 harboring GyrA S83L/D87N double mutant/ParC S80I E84V double mutant/qepA; format: functional
Escherichia coli [10] = assay: Antibacterial activity against Escherichia coli CH418 harboring GyrA S83L/D87N double mutant/ParC S80I E84G double mutant/qnrA; format: functional
Escherichia coli [11] = assay: Antibacterial activity against Escherichia coli CH448 harboring GyrA S83L mutant/qnrS; format: functional
Escherichia coli [12] = assay: Selectivity ratio of MIC for Escherichia coli LM625 harboring GyrA S83L/D87N double mutant to MIC for wild type Escherichia coli LM179; format: functional
Escherichia coli [13] = assay: Selectivity ratio of MIC for Escherichia coli LM367 harboring delta marR/delta acrR double mutant to MIC for wild type Escherichia coli LM179; format: functional
Escherichia coli [14] = assay: Selectivity ratio of MIC for Escherichia coli LM693 harboring GyrA S83L/D87N double mutant/ParC S80I mutant to MIC for wild type Escherichia coli LM179; format: functional
Escherichia coli [15] = assay: Selectivity ratio of MIC for Escherichia coli LM705 harboring GyrA S83L/D87N double mutant/ParC S80I mutant/delta marR/delta acrR double mutant to MIC for wild type Escherichia coli LM179; format: functional
Escherichia coli [16] = assay: Selectivity ratio of MIC for Escherichia coli CH440 harboring GyrA S83L/D87N double mutant/ParC S80I E84V double mutant/aac(6')-lb-cr to MIC for wild type Escherichia coli LM179; format: functional
Escherichia coli [17] = assay: Selectivity ratio of MIC for Escherichia coli CH460 harboring GyrA S83L/D87N double mutant/ParC S80I E84V double mutant/qepA to MIC for wild type Escherichia coli LM179; format: functional
Escherichia coli [18] = assay: Selectivity ratio of MIC for Escherichia coli CH418 harboring GyrA S83L/D87N double mutant/ParC S80I E84G double mutant/qnrA to MIC for wild type Escherichia coli LM179; format: functional
Escherichia coli [19] = assay: Selectivity ratio of MIC for Escherichia coli CH448 harboring GyrA S83L mutant/qnrS to MIC for wild type Escherichia coli LM179; format: functional
HepG2 = assay: Cytotoxicity against human HepG2 cells after 24 hrs by cell titre-glo assay; format: cell-based; settings: HepG2, 24 h
[20] = n-octanol/phosphate buffer partition coefficient, log D of compound at pH 7.4 by shake-flask assay; format: physicochemical
hERG (KCNH2) = hERG (KCNH2) (Homo sapiens, UniProt Q12809); assay: Inhibition of human ERG channel at 100 uM by automated patch clamp assay
Chain of hERG (KCNH2) (Q12809 whole entry): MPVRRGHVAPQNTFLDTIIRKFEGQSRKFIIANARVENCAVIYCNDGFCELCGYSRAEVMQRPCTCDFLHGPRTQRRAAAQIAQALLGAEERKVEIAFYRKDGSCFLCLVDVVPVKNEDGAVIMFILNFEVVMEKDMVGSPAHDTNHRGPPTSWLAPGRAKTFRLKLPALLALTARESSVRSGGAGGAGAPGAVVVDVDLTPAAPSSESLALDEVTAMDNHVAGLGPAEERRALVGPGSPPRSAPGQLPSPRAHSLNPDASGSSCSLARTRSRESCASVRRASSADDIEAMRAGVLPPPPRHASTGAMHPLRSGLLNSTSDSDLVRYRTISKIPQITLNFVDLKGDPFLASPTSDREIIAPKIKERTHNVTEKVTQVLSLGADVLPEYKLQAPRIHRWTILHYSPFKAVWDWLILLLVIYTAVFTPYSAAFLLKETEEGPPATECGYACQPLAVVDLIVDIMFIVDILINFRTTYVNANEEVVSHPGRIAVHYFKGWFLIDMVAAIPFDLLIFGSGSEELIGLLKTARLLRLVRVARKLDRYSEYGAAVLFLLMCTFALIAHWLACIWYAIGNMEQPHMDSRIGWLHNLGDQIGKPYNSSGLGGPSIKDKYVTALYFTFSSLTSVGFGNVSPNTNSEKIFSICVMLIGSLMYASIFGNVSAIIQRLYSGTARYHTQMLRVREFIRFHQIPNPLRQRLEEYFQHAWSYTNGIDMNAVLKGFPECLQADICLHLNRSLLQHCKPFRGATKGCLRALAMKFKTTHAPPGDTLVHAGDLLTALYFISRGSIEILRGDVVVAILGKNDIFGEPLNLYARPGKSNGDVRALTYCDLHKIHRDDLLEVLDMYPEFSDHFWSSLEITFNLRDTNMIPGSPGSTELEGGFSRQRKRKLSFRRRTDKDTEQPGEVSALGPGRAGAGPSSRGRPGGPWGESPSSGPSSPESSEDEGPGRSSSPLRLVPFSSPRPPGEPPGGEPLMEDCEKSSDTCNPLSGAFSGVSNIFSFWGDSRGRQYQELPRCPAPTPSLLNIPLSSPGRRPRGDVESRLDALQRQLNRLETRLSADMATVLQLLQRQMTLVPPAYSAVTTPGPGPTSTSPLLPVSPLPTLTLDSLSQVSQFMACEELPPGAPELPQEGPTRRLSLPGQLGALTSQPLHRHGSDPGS

[21] = target: Voltage-gated inwardly rectifying potassium channel KCNH2 (Homo sapiens, UniProt Q12809); assay: Inhibition of human ERG channel by automated patch clamp assay
Chain of Voltage-gated inwardly rectifying potassium channel KCNH2 (Q12809 whole entry): as above

Compound: CCc1c(-c2ccc(N3C[C@@H]4CCCN[C@@H]4C3)cc2)[nH]c(=O)c2c(=O)[nH]sc12
MIC (Acinetobacter baumannii): 8 µg/mL (≈ 20.2 µM)
MIC (Klebsiella pneumoniae): 4 µg/mL (≈ 10.1 µM)
MIC (Pseudomonas aeruginosa): 1 µg/mL (≈ 2.52 µM)
MIC (Staphylococcus aureus): 1 µg/mL (≈ 2.52 µM)
MIC (Escherichia coli [1]): 0.5 µg/mL (≈ 1.26 µM)
MIC (Escherichia coli [2]): 0.008 µg/mL (≈ 0.0202 µM)

Compound: CCc1c(-c2cccc(N3CCC(CNC)C3)c2)[nH]c(=O)c2c(=O)[nH]sc12 (centres undefined)
MIC (Acinetobacter baumannii): > 64 µg/mL
MIC (Klebsiella pneumoniae): > 64 µg/mL
MIC (Pseudomonas aeruginosa): > 64 µg/mL
MIC (Staphylococcus aureus): 64 µg/mL (≈ 166 µM)
MIC (Escherichia coli [1]): > 64 µg/mL
MIC (Escherichia coli [2]): 8 µg/mL (≈ 20.8 µM)

Compound: CCc1c(-c2ccc(N3C[C@@H]4CCCN(C)[C@@H]4C3)cc2)[nH]c(=O)c2c(=O)[nH]sc12
MIC (Escherichia coli [3]): 4 µg/mL (≈ 9.74 µM)
MIC (Escherichia coli [4]): 16 µg/mL (≈ 39 µM)
MIC (Acinetobacter baumannii): 64 µg/mL (≈ 156 µM)
MIC (Klebsiella pneumoniae): 64 µg/mL (≈ 156 µM)
MIC (Pseudomonas aeruginosa): 32 µg/mL (≈ 77.9 µM)
MIC (Staphylococcus aureus): 4 µg/mL (≈ 9.74 µM)
MIC (Escherichia coli [1]): 4 µg/mL (≈ 9.74 µM)
MIC (Escherichia coli [2]): 1 µg/mL (≈ 2.44 µM)
MIC (Escherichia coli [5]): 16 µg/mL (≈ 39 µM)
MIC (Escherichia coli [6]): > 64 µg/mL
MIC (Escherichia coli [7]): > 64 µg/mL
MIC (Escherichia coli [8]): > 64 µg/mL
MIC (Escherichia coli [9]): 64 µg/mL (≈ 156 µM)
MIC (Escherichia coli [10]): 64 µg/mL (≈ 156 µM)
MIC (Escherichia coli [11]): 32 µg/mL (≈ 77.9 µM)
Selectivity ratio (Escherichia coli [12]): 4
Selectivity ratio (Escherichia coli [13]): 4
Selectivity ratio (Escherichia coli [14]): >16
Selectivity ratio (Escherichia coli [15]): >16
Selectivity ratio (Escherichia coli [16]): >16
Selectivity ratio (Escherichia coli [17]): 16
Selectivity ratio (Escherichia coli [18]): 16
Selectivity ratio (Escherichia coli [19]): 8

Compound: CCc1c(-c2ccc(N3C[C@@H]4CCN(C)[C@@H]4C3)cc2)[nH]c(=O)c2c(=O)[nH]sc12
MIC (Acinetobacter baumannii): 8 µg/mL (≈ 20.2 µM)
MIC (Klebsiella pneumoniae): 8 µg/mL (≈ 20.2 µM)
MIC (Pseudomonas aeruginosa): 8 µg/mL (≈ 20.2 µM)
MIC (Staphylococcus aureus): 4 µg/mL (≈ 10.1 µM)
MIC (Escherichia coli [1]): 0.5 µg/mL (≈ 1.26 µM)
MIC (Escherichia coli [2]): 0.06 µg/mL (≈ 0.151 µM)

Compound: CCc1c(-c2ccc(N3CCC(N(C)C)C3)cc2)[nH]c(=O)c2c(=O)[nH]sc12 (racemic)
MIC (Escherichia coli [3]): 0.5 µg/mL (≈ 1.3 µM)
MIC (Escherichia coli [4]): 4 µg/mL (≈ 10.4 µM)
MIC (Acinetobacter baumannii): 2 µg/mL (≈ 5.2 µM)
MIC (Klebsiella pneumoniae): 4 µg/mL (≈ 10.4 µM)
MIC (Pseudomonas aeruginosa): 1 µg/mL (≈ 2.6 µM)
MIC (Staphylococcus aureus): 1 µg/mL (≈ 2.6 µM)
MIC (Escherichia coli [1]): 0.25 µg/mL (≈ 0.65 µM)
MIC (Escherichia coli [2]): 0.03 µg/mL (≈ 0.078 µM)
IC50 (HepG2): > 128 µg/mL
logD [20]: 1.4
inhibition at 100 µM (hERG (KCNH2)): 84%
IC50 [21]: 20 µM
MIC (Escherichia coli [5]): 2 µg/mL (≈ 5.2 µM)
MIC (Escherichia coli [6]): 8 µg/mL (≈ 20.8 µM)
MIC (Escherichia coli [7]): 64 µg/mL (≈ 166 µM)
MIC (Escherichia coli [8]): 16 µg/mL (≈ 41.6 µM)
MIC (Escherichia coli [9]): 16 µg/mL (≈ 41.6 µM)
MIC (Escherichia coli [10]): 16 µg/mL (≈ 41.6 µM)
MIC (Escherichia coli [11]): 16 µg/mL (≈ 41.6 µM)
Selectivity ratio (Escherichia coli [12]): 8
Selectivity ratio (Escherichia coli [13]): 4
Selectivity ratio (Escherichia coli [14]): 16
Selectivity ratio (Escherichia coli [15]): 128
Selectivity ratio (Escherichia coli [16]): 32
Selectivity ratio (Escherichia coli [17]): 32
Selectivity ratio (Escherichia coli [18]): 32
Selectivity ratio (Escherichia coli [19]): 32

Compound: O=C(O)c1cn(C2CC2)c2cc(N3CCNCC3)c(F)cc2c1=O [CIPROFLOXACIN]
MIC (Klebsiella pneumoniae): 0.25 µg/mL (≈ 0.754 µM)
MIC (Pseudomonas aeruginosa): 1 µg/mL (≈ 3.02 µM)
MIC (Staphylococcus aureus): 0.25 µg/mL (≈ 0.754 µM)
IC50 (HepG2): > 128 µg/mL
MIC (Escherichia coli [7]): 64 µg/mL (≈ 193 µM)
MIC (Escherichia coli [8]): > 64 µg/mL
MIC (Escherichia coli [9]): > 64 µg/mL
MIC (Escherichia coli [10]): 64 µg/mL (≈ 193 µM)

Now from value to compound, other results behind:

MIC (Acinetobacter baumannii): > 128 µg/mL
MIC (Klebsiella pneumoniae): 32 µg/mL (≈ 83.2 µM)
MIC (Pseudomonas aeruginosa): 2 µg/mL (≈ 5.2 µM)
MIC (Staphylococcus aureus): 2 µg/mL (≈ 5.2 µM)
MIC (Escherichia coli [1]): 1 µg/mL (≈ 2.6 µM)
MIC (Escherichia coli [2]): 0.008 µg/mL (≈ 0.0208 µM)
Compound: CCc1c(-c2ccc(N3CCC(CNC)C3)cc2)[nH]c(=O)c2c(=O)[nH]sc12 (centres undefined)

MIC (Acinetobacter baumannii): > 64 µg/mL
MIC (Klebsiella pneumoniae): 64 µg/mL (≈ 180 µM)
MIC (Pseudomonas aeruginosa): 16 µg/mL (≈ 44.9 µM)
MIC (Staphylococcus aureus): 8 µg/mL (≈ 22.4 µM)
MIC (Escherichia coli [1]): 4 µg/mL (≈ 11.2 µM)
MIC (Escherichia coli [2]): 0.5 µg/mL (≈ 1.4 µM)
Compound: CCc1c(-c2ccc(N3CCNCC3)cc2)[nH]c(=O)c2c(=O)[nH]sc12

MIC (Acinetobacter baumannii): 4 µg/mL (≈ 10.4 µM)
MIC (Klebsiella pneumoniae): 8 µg/mL (≈ 20.8 µM)
MIC (Pseudomonas aeruginosa): 1 µg/mL (≈ 2.6 µM)
MIC (Staphylococcus aureus): 2 µg/mL (≈ 5.2 µM)
MIC (Escherichia coli [1]): 0.5 µg/mL (≈ 1.3 µM)
MIC (Escherichia coli [2]): 0.03 µg/mL (≈ 0.078 µM)
Compound: CCc1c(-c2ccc(N3CC[C@@H](N(C)C)C3)cc2)[nH]c(=O)c2c(=O)[nH]sc12

MIC (Acinetobacter baumannii): 16 µg/mL (≈ 44.8 µM)
MIC (Klebsiella pneumoniae): 2 µg/mL (≈ 5.6 µM)
MIC (Pseudomonas aeruginosa): 1 µg/mL (≈ 2.8 µM)
MIC (Staphylococcus aureus): 0.015 µg/mL (≈ 0.042 µM)
MIC (Escherichia coli [1]): 0.12 µg/mL (≈ 0.336 µM)
MIC (Escherichia coli [2]): 0.008 µg/mL (≈ 0.0224 µM)
Compound: CCc1c(-c2ccc(N3CC[C@@H](O)C3)cc2)[nH]c(=O)c2c(=O)[nH]sc12

MIC (Acinetobacter baumannii): 32 µg/mL (≈ 89.5 µM)
MIC (Klebsiella pneumoniae): 4 µg/mL (≈ 11.2 µM)
MIC (Pseudomonas aeruginosa): 0.5 µg/mL (≈ 1.4 µM)
MIC (Staphylococcus aureus): 0.12 µg/mL (≈ 0.336 µM)
MIC (Escherichia coli [1]): 0.25 µg/mL (≈ 0.699 µM)
MIC (Escherichia coli [2]): 0.03 µg/mL (≈ 0.0839 µM)
logD [20]: 1.5
Compound: CCc1c(-c2ccc(N3CC[C@H](O)C3)cc2)[nH]c(=O)c2c(=O)[nH]sc12
IC50 (HepG2): > 16 µg/mL
inhibition at 100 µM (hERG (KCNH2)): 22%

— ChEMBL document CHEMBL4477259, “Discovery and structure-activity relationships of a novel isothiazolone class of bacterial type II topoisomerase inhibitors” (Bioorg Med Chem Lett, 2016)
